Columns and labels:
CD-MPR^+ cells [1] = assay: GrB uptake (unpublished findings); assay type: cell-based, murine L cells transfected with human CD-MPR; details: CD-MPR-overexpressing CD-MPR^+ cells
Jurkat cells = assay: TUNEL and annexin V apoptosis assays with grB and AD; assay type: cell-based, human
Protocol: GrB was treated for 1 hr at 37° C. in a phosphate-free (saline) or a high-phosphate (64.5 mM Na2HPO4.7H2O, 21 mM KH2PO4) buffer with calf intestinal alkaline phosphatase (1-10 U), 20 nM of the 37 kDa catalytic subunit of recombinant protein phosphatase-1 (Bagu et al, 1997), or with vehicle control. Cells were then incubated with the treated grB at 4° C. for 30-60 min. For the TUNEL or annexin V assays, cells were then washed twice before incubation at 37° C. with AD.
M6P and various other monosaccharides at different concentrations were added to cells for 15 min at 4° C. before the addition of labeled grB, or at room temperature before the addition of grB and AD.
GrB was incubated with sCI-MPR at various concentrations in PBS/0.1% BSA for 30 min at 4° C. Subsequently, cells were incubated with grB/sCI-MPR for 30-60 min at 4° C. and washed twice, before analysis of binding, or before the addition of AD for TUNEL and annexin V analysis.
(§1) For the in vitro killing assays, 10 pfu per cell of replication-deficient adenovirus (AD) were added subsequent to grB addition. Analysis of DNA fragmentation by TUNEL analysis has been described previously (Heibein et al., 1999). TUNEL materials (Roche Diagnostics) were used as per the manufacturer's instructions. Phosphatidylserine externalization was measured as previously described (Heibein et al., 1999) using annexin V-FITC (PharMingen). Percent specific TUNEL/annexin V positive cells was calculated as: [(% positive labeling cells with grB and AD-% positive labeling cells without grB and AD)/(100-% positive labeling cells without grB and AD)]×100.
Cells were resuspended at 10^6 cells/ml in 0.1% BSA/DMEM. Adenovirus (10 PFU/cell) and granzyme B (grB) were added directly to the cell suspension. Cells were incubated at 37° C. for 3 h. For staurosporine killing, cells were resuspended at 10^6 cells/ml in their normal growth medium and staurosporine (2.5 μM) was added directly to the cell suspension. Cells were incubated at 37° C. for 2, 4 and 8 h.
(§2) DNA fragmentation was monitored by flow cytometric analysis via the terminal deoxynucleotidyltransferase-mediated dUTP-biotin nick end labeling (TUNEL) method. Flow cytometric analysis was performed on a Becton Dickinson FACScanθ flow cytometer equipped with an argon-ion laser with 15 mW of excitation at 488 nm. Emission wavelengths were detected through the FL1 channel. Data were acquired on 10,000 cells per sample with light scatter signals at linear gain and fluorescence signals at logarithmic gain. Percent specific TUNEL positive cells was calculated as follows: [(% positive labeling cells with grB and AD−% positive labeling cells without grB and AD)/(AD−% positive labeling cells without grB and AD)]×100.
as §2, with “Phosphatidylserine externalization” for “DNA fragmentation”, “monitored using the ApoAlertθ annexin V apoptosis kit (Clontech) according to the protocol provided” for “monitored”, “by” for “by flow cytometric analysis via”, “manufacturer.” for “terminal deoxynucleotidyltransferase-mediated dUTP-biotin nick end labeling (TUNEL) method.”, “Annexin V” for “TUNEL”

CD-MPR^+ cells [2] = assay: as above; assay type: cell-based, murine L cells transfected with human CD-MPR; details: 100 ng/ml grB and AD, 3 hr
Protocol: as §1

procaspase-3 = assay: Caspase 3 cleavage by Western blotting; assay type: cell-based, human; details: grB (18 nM) and AD, 3 hr
Protocol: Cells were resuspended at 10^6 cells/ml in 0.1% BSA/DMEM. Adenovirus (10 PFU/cell) and granzyme B (grB) were added directly to the cell suspension. Cells were incubated at 37° C. for 3 h. For staurosporine killing, cells were resuspended at 10^6 cells/ml in their normal growth medium and staurosporine (2.5 μM) was added directly to the cell suspension. Cells were incubated at 37° C. for 2, 4 and 8 h. Cellular lysates were collected by directly harvesting 10^5 cells into 100 μl of sodium dodecyl sulfate-polyacrylamide gel electrophoresis (SDS-PAGE) gel loading buffer and subjected to SDS-PAGE analysis. Proteins were transferred to nitrocellulose (Micron Separations Inc.) by using a semidry transfer apparatus (Tyler Corp.) for 1 h at 150 mA. Membranes were blocked in phosphate-buffered saline (PBS) containing 0.1% Tween 20 (ICN Biomedicals Inc.) and 5% skim milk for 16 h. Caspase 3 was detected using polyclonal rabbit anti-caspase 3 at a dilution of 1:10,000. The membrane was incubated with the primary antibody for 2 h, after which the blot was washed three times in PBS containing 0.1% Tween 20. The membranes were probed with a horseradish peroxidase-conjugated goat anti-rabbit secondary antibody (Bio-Rad Laboratories) at a 1:20,000 dilution. Transferred proteins were visualized with a chemiluminescence detection system (Amersham Inc.).

## grB: Human serine proteinase granzyme B purified from the cytolytic granules of YT-Indy cells
CD-MPR^+ cells [1]
  grB uptake: essentially no grB uptake
Jurkat cells; Jurkat cells incubated with only grB (no AD)
  percentage of TUNEL/annexin V positive cells: under 8%
Jurkat cells; Jurkat cells, 3 hr, varying concentrations of grB and AD (Example 2)
  TUNEL and annexin V labeling: significant TUNEL and annexin V labeling
Jurkat cells; grB treated with catalytic subunit of protein phosphatase-1 (data not shown)
  ability to induce apoptosis of Jurkat cells: did not lose
Jurkat cells; granule-purified grB with AD (FIG. 3C)
  concentration sufficient to elicit effective Jurkat cell killing: less than 1 ng/ml
CD-MPR^+ cells [2]
  annexin V binding after grB and AD: did not bind annexin V
  grB and AD-mediated DNA fragmentation: resistant
procaspase-3; Jurkat cells
  cleavage of procaspase-3: able to observe cleavage
procaspase-3; MDA-MB-231 cells
  cleavage of procaspase-3: unable to observe any cleavage
procaspase-3; SK-BR-3 cells
  cleavage of procaspase-3: unable to observe any cleavage
procaspase-3; T47-D cells
  cleavage of procaspase-3: able to observe cleavage
